Read-outs that look alike come from different tables or passages of the source.
Experiments:
[1] = tested on: MCF7 (breast cancer cell line); assay: Growth inhibition by MTT cytotoxicity assay, in vitro anticancer activity; assay type: cell-based
Method: Compounds were dissolved in DMSO (Sigma) to prepare 50 mM concentrations stock solutions. All the further dilutions were also made in DMSO. During the treatment, the final concentration of DMSO was maintained <[…].
Breast cancer cell line MCF7, maintained at NCCS, a national resource for providing cell lines, was grown in DMEM (GIBCO), MBA-MB-231 in RPMI (GIBCO) with 10% FBS, 100 U/mL penicillin and 100 μg/mL streptomycin and MCF10A in DMEM/F12 (Gibco) containing, horse Serum (10% final), EGF (20 ng/ml), Hydrocortisone ([…]), Cholera Toxin (100 ng/ml), Insulin (10 μg/ml) and Penicillin/Streptomycin mix (1 ml/100 ml) at 37° C. in a humid, 5% CO2 regulated incubator.
The cytotoxic effect of the compounds was determined using MTT (3-(4, 5 dimethylthiazol-2-yl)-2-5 diphenyltetrazolium bromide) assay. Cells were seeded (4×10^3 per well) in 96 well plates. After 24 hours of seeding, cells were exposed with varying concentrations ([…]) of respective compounds for 48 hours in triplicates. Then, MTT solution (20 μL of 5 mg/mL stock for each well of 96 well plate) was added and further incubated for 3.5 hours in humid 5% CO2 incubator. Media containing MTT solution was then replaced by MTT solvent (iso-propanol, HCl and Triton X-100), incubated for 15 min at room temperature with gentle shaking for complete dissolution of Formazan. Absorbance was measured at 570 nm using a Thermo Scientific Multiskan GO Elisa plate reader and IC 50 was calculated by routine methods. All experiments were carried out at least in triplicate, and the percentage of viable cells was calculated as the mean with respect to the controls.

[2] = Homo sapiens, MCF7 breast cancer cell line, MTT, 48 hours exposure, Table 1, read-out: IC50
[3] = MCF7 breast cancer cell line, MTT, 48 hours exposure, table of Example 4, read-out: IC50

For C=C(C(=O)NCc1cn([C@@H]2O[C@H](COC(=O)c3ccccc3)[C@@H](OC(=O)c3ccccc3)[C@H](OC(=O)c3ccccc3)[C@H]2OC(=O)c2ccccc2)nn1)[C@@H]1CC[C@@H](C)[C@@H]2CCC(C)=C[C@@H]21 [KTK-PA-4, (2R,3R,4S,5R,6R)-2-((benzoyloxy)methyl)-6-(4-((2-((1R,4R,4aS,8aR)-4,7-dimethyl-1,2,3,4,4a,5,6,8a-octahydronaphthalen-1-yl)acrylamido)methyl)-1H-1,2,3-triazol-1-yl)tetrahydro-2H-pyran-3,4,5-triyl tribenzoate], which IC50 [1, 2] is on record?
The IC50 was greater than 100 µM.

What about the IC50 [1, 3] of the same compound?
Its IC50 is greater than 100 µM.

Which IC50 [1, 2] does the source give for C=C(C(=O)O)[C@@H]1CC[C@@H](C)[C@@H]2CCC(C)=C[C@@H]21 [KTK-AA- Artimisinic acid, Artemisinic acid] here?
Its IC50 is greater than 100 µM.

And the IC50 [1, 3]?
The IC50 was greater than 100 µM.

Which IC50 [1, 2] does the source give for C=C(C(=O)OCc1cn([C@@H]2O[C@H](COC(=O)c3ccccc3)[C@H](OC(=O)c3ccccc3)[C@H](OC(=O)c3ccccc3)[C@H]2OC(=O)c2ccccc2)nn1)[C@@H]1CC[C@@H](C)[C@@H]2CCC(C)=C[C@@H]21 [KTK-AA-6, (2R,3S,4S,5R,6R)-2-((benzoyloxy)methyl)-6-(4-(((2-((1R,4R,4aS,8aR)-4,7-dimethyl-1,2,3,4,4a,5,6,8a-octahydronaphthalen-1-yl)acryloyl)oxy)methyl)-1H-1,2,3-triazol-1-yl)tetrahydro-2H-pyran-3,4,5-triyl tribenzoate] here?
Its IC50 is greater than 100 µM.

And the IC50 [1, 3]?
Its IC50 is greater than 100 µM.

Which results are given for C=C(C(=O)OCc1cn([C@@H]2O[C@H](COC(C)=O)[C@@H](OC(C)=O)[C@H](OC(C)=O)[C@H]2OC(C)=O)nn1)[C@@H]1CC[C@@H](C)[C@@H]2CCC(C)=C[C@@H]21 [KTK-AA-4, (2R,3R,4S,5R,6R)-2-(acetoxymethyl)-6-(4-(((2-((1R,4R,4aS,8aR)-4,7-dimethyl-1,2,3,4,4a,5,6,8a-octahydronaphthalen-1-yl)acryloyl)oxy)methyl)-1H-1,2,3-triazol-1-yl)tetrahydro-2H-pyran-3,4,5-triyl triacetate]?
IC50 [1, 2]: > 100 µM; IC50 [1, 3]: > 100 µM

With C=C(C(=O)OCc1cn([C@@H]2O[C@@H](C)[C@H](OC(C)=O)[C@@H](OC(C)=O)[C@H]2OC(C)=O)nn1)[C@@H]1CC[C@@H](C)[C@@H]2CCC(C)=C[C@@H]21 [KTK-AA-7, (2R,3R,4R,5S,6S)-2-(4-(((2-((1R,4R,4aS,8aR)-4,7-Dimethyl-1,2,3,4,4a,5,6,8a-octahydronaphthalen-1-yl)acryloyl)oxy)methyl)-1H-1,2,3-triazol-1-yl)-6-methyltetrahydro-2H-pyran-3,4,5-triyl triacetate] as the compound, how does the IC50 ([1]; Homo sapiens, MCF7, MCF-7 breast cancer cell line, read-out: IC50 value, anticancer activity against MCF-7) read?
The IC50 was 42 µM.

And the IC50 [1, 2]?
The IC50 was 42 ± 2 µM.

And the “IC50 value less when compared with artimisinic acid” value ([1]; MCF7, reduction of IC50 relative to artimisinic acid)?
Its value is “more than 50%”.

What about the melting point of the same compound?
The melting point was 89 to 92 °C.

Which results are given for C=C(C(=O)NCc1cn([C@@H]2O[C@H](COC(C)=O)[C@H](OC(C)=O)[C@H](OC(C)=O)[C@H]2OC(C)=O)nn1)[C@@H]1CC[C@@H](C)[C@@H]2CCC(C)=C[C@@H]21 [KTK-PA-3, (2R,3S,4S,5R,6R)-2-(acetoxymethyl)-6-(4-((2-((1R,4R,4aS,8aR)-4,7-dimethyl-1,2,3,4,4a,5,6,8a-octahydronaphthalen-1-yl)acrylamido)methyl)-1H-1,2,3-triazol-1-yl)tetrahydro-2H-pyran-3,4,5-triyl triacetate]?
IC50 [1, 2]: > 100 µM; IC50 [1, 3]: > 100 µM

Which results are given for C=C(C(=O)OCc1cn([C@@H]2O[C@H](COC(C)=O)[C@H](OC(C)=O)[C@H](OC(C)=O)[C@H]2OC(C)=O)nn1)[C@@H]1CC[C@@H](C)[C@@H]2CCC(C)=C[C@@H]21 [KTK-AA-2, (2R,3S,4S,5R,6R)-2-(acetoxymethyl)-6-(4-(((2-((1R,4R,4aS,8aR)-4,7-dimethyl-1,2,3,4,4a,5,6,8a-octahydronaphthalen-1-yl)acryloyl)oxy)methyl)-1H-1,2,3-triazol-1-yl)tetrahydro-2H-pyran-3,4,5-triyl triacetate]?
IC50 [1, 2]: > 100 µM; IC50 [1, 3]: > 100 µM

For C=C(C(=O)NCc1cn([C@@H]2O[C@H](COC(C)=O)[C@@H](OC(C)=O)[C@H](OC(C)=O)[C@H]2OC(C)=O)nn1)[C@@H]1CC[C@@H](C)[C@@H]2CCC(C)=C[C@@H]21 [KTK-PA-2, (2R,3R,4S,5R,6R)-2-(acetoxymethyl)-6-(4-((2-((1R,4R,4aS,8aR)-4,7-dimethyl-1,2,3,4,4a,5,6,8a-octahydronaphthalen-1-yl)acrylamido)methyl)-1H-1,2,3-triazol-1-yl)tetrahydro-2H-pyran-3,4,5-triyl triacetate], which IC50 [1, 2] is on record?
Its IC50 is greater than 100 µM.

And the IC50 [1, 3]?
Its IC50 is greater than 100 µM.
